# Test results as given in PMC12490239, “Combining BET inhibition with SMAC mimetics restricts tumor growth and triggers immune surveillance in preclinical cancer models” (Cell Reports Medicine, 2025).
# How the values were obtained:
# Assay in all cases: cells
# Design in all cases: CellTiter-Glo 2.0 luminescence proliferation/viability assay, single agents, human tumour cell line panel
# [1] = system: A549; details: Homo sapiens, A549, 96 h; single agent; read-out: IC50 SMACm
# How it was run: (§1)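 Human tumour cell lines were seeded into assay plates and held at 37°C with 5% CO2 for twenty-four hours, then exposed in triplicate to rising concentrations of the SMAC mimetic, from 4.5 nM to 10 μM, with DMSO as control. After 96 h, viability was read as CellTiter-Glo2.0 luminescence to derive single-agent IC50 values.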
# [2] = system: CAR1; details: Homo sapiens, CaR-1, 96 h; single agent; read-out: IC50 SMACm
# How it was run: as §1
# [3] = system: COLO-741; details: Homo sapiens, COLO-741, 96 h; single agent; read-out: IC50 SMACm
# How it was run: as §1
# [4] = system: HCC1195; details: 96 h; single agent; read-out: IC50 SMACm
# How it was run: as §1
# [5] = system: HCC1833; details: 96 h; single agent; read-out: IC50 SMACm
# How it was run: as §1
# [6] = system: KLM-1; details: KLM1, 96 h; single agent; read-out: IC50 SMACm
# How it was run: as §1
# [7] = system: KP-3; details: 96 h; single agent; read-out: IC50 SMACm
# How it was run: as §1
# [8] = system: LIM2551; details: 96 h; single agent; read-out: IC50 SMACm
# How it was run: as §1
# [9] = system: NCI-H292; details: Homo sapiens, NCI-H292, 96 h; single agent; read-out: IC50 SMACm
# How it was run: as §1
# [10] = system: SNU-668; details: SNU668, 96 h; single agent; read-out: IC50 SMACm
# How it was run: as §1
# [11] = system: SNU1040; details: 96 h; single agent; read-out: IC50 SMACm
# How it was run: as §1
# [12] = system: SNU1411; details: 96 h; single agent; read-out: IC50 SMACm
# How it was run: as §1
# [13] = system: SNU283; details: 96 h; single agent; read-out: IC50 SMACm
# How it was run: as §1
# [14] = system: SNUC2B; details: Homo sapiens, SNU-C2B, 96 h; single agent; read-out: IC50 SMACm
# How it was run: as §1
# [15] = system: SW1116; details: Homo sapiens, SW 1116, 96 h; single agent; read-out: IC50 SMACm
# How it was run: as §1
# [16] = system: SW48; details: Homo sapiens, SW48, 96 h; single agent; read-out: IC50 SMACm
# How it was run: as §1
smiles,measurement,setting,value
"CN[C@@H](C)C(=O)Nc1ccc(-c2c(-c3cccnc3OC)nc3cc(C)ccn23)c(C#Cc2ccc3c(C)nccc3c2)n1 [SMACm, BI 891065]",IC50,[1],> 10 µM
same,IC50,[2],2.1 µM
same,IC50,[3],0.831 µM
same,IC50,[4],4.59 µM
same,IC50,[5],0.102 µM
same,IC50,[6],3.93 µM
same,IC50,[7],4.62 µM
same,IC50,[8],2.25 µM
same,IC50,[9],6.03 µM
same,IC50,[10],6.29 µM
same,IC50,[11],3.59 µM
same,IC50,[12],4.87 µM
same,IC50,[13],3.78 µM
same,IC50,[14],0.137 µM
same,IC50,[15],4.51 µM
same,IC50,[16],5.9 µM
